In patent publication US20110306623A1, “NOVEL COMPOUNDS COMPRISING A 3-(5-ALKOXYPYRIMIDIN-2-YL) PYRIMIDIN-4(3H)-ONE STRUCTURE AND DRUGS THAT COMPRISE SAME” (KOWA COMPANY, LTD., priority 2009, published 2011):

How the values were obtained:
[1] = system: angiotensin II-induced blood pressure increase; assay: Inhibitory activity on angiotensin II-induced blood pressure increase; type: in vivo; conditions: male SD rat, FIG. 1
Procedure: Inhibitory Activity on Angiotensin II-Induced Blood Pressure Increase
The in vivo angiotensin II antagonist activity of the Compound a and the Compound B was evaluated by following, as an index, the blood pressure increase induced by intravenous injection of angiotensin II.
A male SD rat (10 to 12-week old) was anesthetized with pentobarbital, and a cannular for measuring blood pressure was inserted into the right femoral artery while a cannular for injecting angiotensin II was inserted into the right jugular vein, the cannulars were then fixed on the back side of the neck as exposed.
One day after the surgery, the rat was subjected to the test under unanaesthetized, unstrained, and unfasted condition. The artery cannular was connected to a blood pressure transducer, and the blood pressure and heart rate were continuously recorded on a polygraph with an aid of an amplifier. Once the blood pressure and heart rate are stabilized, angiotensin II (0.1 nmol/kg) was administered via the vein cannular. The angiotensin II was repeatedly administered until a stable hypertensive response is obtained. After that, the Compound a (1 mg/kg or 3 mg/kg) or the Compound B (3 mg/kg) was orally administered, and the hypertensive response induced by angiotensin II was observed over time until 24 hours after the administration. […]

human PPAR 2 = target: T1, human PPAR 2 (Homo sapiens, UniProt P37231); assay: PPAR activating activity, Gal4-PPAR chimera luciferase transfection assay using COS7 cells; type: cell-based; conditions: relative to Rosiglitazone
T1 construct: the amino acids 182 to 505 of human PPAR 2; expressed in transfected cells; host or cells: COS7 cells
T1 sequence (P37231 182-505): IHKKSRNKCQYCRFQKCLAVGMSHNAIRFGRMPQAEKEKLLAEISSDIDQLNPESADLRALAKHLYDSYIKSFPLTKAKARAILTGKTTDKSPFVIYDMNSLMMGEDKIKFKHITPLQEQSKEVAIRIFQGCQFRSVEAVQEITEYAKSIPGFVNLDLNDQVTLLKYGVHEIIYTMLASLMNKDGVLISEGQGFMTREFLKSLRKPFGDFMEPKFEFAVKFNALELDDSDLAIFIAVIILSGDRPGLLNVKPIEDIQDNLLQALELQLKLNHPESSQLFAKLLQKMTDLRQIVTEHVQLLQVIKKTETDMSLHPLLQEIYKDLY
Procedure: PPAR Activating Activity The agonist activity of the Compound a and the Compound b on PPAR was measured based on the transfection assay using COS7 cells (DS Pharma Biomedical Co., Ltd., Osaka, Japan), which are the cell line derived from the kidney of the African green monkey. COS7 cells were cultured under 5% CO2 concentration, and DMEM medium containing 10% fetal bovine serum, glutamic acid, and antibiotics was used as a medium. As an expression vector, a chimera in which DNA binding domain of Gal4 which is a yeast transcription factor, and ligand binding domain of human PPAR 2 are fused, i.e., a fused product between the amino acids 1 to 147 of Gal4 transcription factor and the amino acids 182 to 505 of human PPAR 2, was used. Furthermore, as a reporter vector, a firefly luciferase containing five copies of Gal4 recognition sequence in the promoter region was used. Plasmid transfection of the cells was performed according to a method which uses jetPEI (trade name, manufactured by Funakoshi Co., Ltd., Tokyo, Japan). […] After that, the luciferase activity and -galactosidase activity in the cell lysis solution were measured. […] The percentage of the luciferase activity of the Compound a or the Compound b (1 to 30 mol/L) was calculated when the luciferase activity of Rosiglitazone (3 to 10 mol/L) is 100% and the luciferase activity in the absence of the Compound a or the Compound b is 0%. […]

## CCCCc1nc(C)n(-c2ncc(OC)cn2)c(=O)c1Cc1ccc(-c2ccccc2-c2noc(=O)[nH]2)cc1 [Compound b, 3-{4′-{[6-butyl-3-(5-methoxypyrimidin-2-yl)-2-methylpyrimidin-4(3H)-on-5-yl]methyl}biphenyl-2-yl}-1,2,4-oxadiazol-5(4H)-one]
[1]; oral 3 mg/kg
  effect of inhibiting the angiotensin II-induced blood pressure increase, compared with Compound a 3 mg/kg: substantially the same degree as the administration of the Compound a with dosage of 3 mg/kg
[1]; oral, Compound a 1 or 3 mg/kg, Compound B 3 mg/kg, 24 hours after administration
  inhibitory action on angiotensin II-induced blood pressure increase, 24 hours after the administration: its effect was almost completely lost 24 hours after the administration
Human PPAR 2
  percentage of the luciferase activity (Rosiglitazone = 100%, absence of compound = 0%): 24%
